Patent US20240197726A1, “NOVEL TETRAHYDROISOQUINOLINE ALKALOID COMPOUND CONTAINING MACROCYCLE” (THE UNIVERSITY OF TOKYO, priority 2021, published 2024)
Like-named read-outs stand apart in the source and are kept apart here.

What was measured:
Assay type in all cases: cell-based
[1] = system: KM-12 colorectal cancer cells; assay: antitumor activity, sulforhodamine B cell growth assay, KM-12; conditions: Homo sapiens, KM12
Description: (§1) The THIQ compound containing a macrocyclic structure of the present invention was administered to various cancer cell lines, and the antitumor activity (Go value) was observed. Specifically, verification was performed according to the literature (Yamori, T.; Matsunaga, A.; Sato, S.; Yamazaki, K.; Komi, A.; Ishizu, K. et al. Cancer Res. 1999, 59, 4042) by the following procedure.
(§2) Cells were plated at an appropriate density in a 96-well plate in RPMI 1640 together with 5% fetal bovine serum, and adhered overnight. The cells were exposed to a drug for 48 hours. Then, according to the sulforhodamine B assay described by Skehan et al (Skehan P., Storeng R., Scudiero D., Monks A., McMahon J., Vistica D., Warren J. T., Bokesch H., Kenney S., Boyd M. R. J Natl. Cancer Inst, 1990, 82, 1107-1112), the cell growth rate was measured. The absorbance of the control well (C) and the test well (T) was measured at 525 nm. In addition, the time at which the drug was added was set as time 0, and the absorbance for the test well (T0) was measured. Using these measured values, the cell growth inhibitory effect (% growth=PG) was calculated by the following formula at each concentration of the drug.
(§3) (T<T0): PG=100×[(T−T0)/T]
(§4) The PG values determined above for each cell line were plotted against the concentration (logarithm) on a semi-logarithmic graph, and summarized for each visceral cancer. Concentrations at which the dose-response curve of each cell line crossed the horizontal line of PG=50%, 0%, or −50% were calculated. These concentrations were defined as Log GI50, Log TGI, and Log LC50. Actually, using two data points of the drug concentration before and after crossing each horizontal line, the drug concentration (logarithmic value) at the intersection of the straight line connecting the two points and the horizontal line for each PG was calculated.

[2] = system: SNB-75 central nervous system cancer cells; assay: antitumor activity, sulforhodamine B cell growth assay, SNB-75; conditions: Homo sapiens
Description: as §1, §2, §3, §4

A549 lung cancer cells = assay: antitumor activity, sulforhodamine B cell growth assay, A549; conditions: Homo sapiens
Description: as §1, §2, §3, §4

[3] = system: SF-268 central nervous system cancer cells; assay: antitumor activity, sulforhodamine B cell growth assay, SF-268; conditions: Homo sapiens
Description: as §1, §2, §3, §4

DMS273 lung cancer cells = assay: antitumor activity, sulforhodamine B cell growth assay, DMS273; conditions: Homo sapiens, DMS-273
Description: as §1, §2, §3, §4

[4] = system: MKN74 gastric cancer cells; assay: antitumor activity, sulforhodamine B cell growth assay, MKN74; conditions: Homo sapiens, MKN-74
Description: as §1, §2, §3, §4

[5] = system: HBC-5 breast cancer cells; assay: antitumor activity, sulforhodamine B cell growth assay, HBC-5; conditions: HBC5
Description: as §1, §2, §3, §4

[6] = system: MCF-7 breast cancer cells; assay: antitumor activity, sulforhodamine B cell growth assay, MCF-7; conditions: Homo sapiens, MCF7
Description: as §1, §2, §3, §4

[7] = system: DU-145 prostate cancer cells; assay: antitumor activity, sulforhodamine B cell growth assay, DU-145; conditions: Homo sapiens
Description: as §1, §2, §3, §4

LOX-IMVI melanoma cells = assay: antitumor activity, sulforhodamine B cell growth assay, LOX-IMVI; conditions: Homo sapiens
Description: as §1, §2, §3, §4

[8] = system: BSY-1 breast cancer cells; assay: antitumor activity, sulforhodamine B cell growth assay, BSY-1
Description: as §1, §2, §3, §4

[9] = system: NCI-H23 lung cancer cells; assay: antitumor activity, sulforhodamine B cell growth assay, NCI-H23; conditions: Homo sapiens
Description: as §1, §2, §3, §4

[10] = system: MKN1 gastric cancer cells; assay: antitumor activity, sulforhodamine B cell growth assay, MKN1; conditions: Homo sapiens, MKN-1
Description: as §1, §2, §3, §4

SK-OV-3 cancer cells = assay: antitumor activity, sulforhodamine B cell growth assay, SK-OV-3; conditions: Homo sapiens
Description: as §1, §2, §3, §4

OVCAR-8 cancer cells = assay: antitumor activity, sulforhodamine B cell growth assay, OVCAR-8; conditions: Homo sapiens
Description: as §1, §2, §3, §4

OVCAR-3 cancer cells = assay: antitumor activity, sulforhodamine B cell growth assay, OVCAR-3; conditions: Homo sapiens
Description: as §1, §2, §3, §4

[11] = system: NCI-H460 lung cancer cells; assay: antitumor activity, sulforhodamine B cell growth assay, NCI-H460; conditions: Homo sapiens
Description: as §1, §2, §3, §4

[12] = system: U251 central nervous system cancer cells; assay: antitumor activity, sulforhodamine B cell growth assay, U251; conditions: Homo sapiens, U-251
Description: as §1, §2, §3, §4

[13] = system: HCC2998 colorectal cancer cells; assay: antitumor activity, sulforhodamine B cell growth assay, HCC2998; conditions: Homo sapiens, HCC 2998
Description: as §1, §2, §3, §4

[14] = system: SF-539 central nervous system cancer cells; assay: antitumor activity, sulforhodamine B cell growth assay, SF-539; conditions: Homo sapiens
Description: as §1, §2, §3, §4

[15] = system: PC-3 prostate cancer cells; assay: antitumor activity, sulforhodamine B cell growth assay, PC-3
Description: as §1, §2, §3, §4

Structure (SMILES): CC1=C(C)C(=O)C2=C(CC3(C)[C@H]4c5c(cc(C)c(C)c5C)C[C@@](C)(C(C)N3[C@H]2CNC(=O)C(C)C)N4C)C1=O (stereo partly drawn) [drawing 160]
- GI50 ([1]; KM-12 colorectal cancer cells, read-out: antitumor activity GI50 value: 50% growth inhibitory concentration): 530 nM
- GI50 ([2]; SNB-75 central nervous system cancer cells, read-out: antitumor activity GI50 value: 50% growth inhibitory concentration): 150 nM
- GI50 (A549 lung cancer cells; A549 lung cancer cells, read-out: antitumor activity GI50 value: 50% growth inhibitory concentration): 1600 nM
- GI50 ([3]; SF-268 central nervous system cancer cells, read-out: antitumor activity GI50 value: 50% growth inhibitory concentration): 370 nM
- GI50 (DMS273 lung cancer cells; DMS273 lung cancer cells, read-out: antitumor activity GI50 value: 50% growth inhibitory concentration): 270 nM
- GI50 ([4]; MKN74 gastric cancer cells, read-out: antitumor activity GI50 value: 50% growth inhibitory concentration): 310 nM
- GI50 ([5]; HBC-5 breast cancer cells, read-out: antitumor activity GI50 value: 50% growth inhibitory concentration): 62 nM
- GI50 ([6]; MCF-7 breast cancer cells, read-out: antitumor activity GI50 value: 50% growth inhibitory concentration): 52 nM
- GI50 ([7]; DU-145 prostate cancer cells, read-out: antitumor activity GI50 value: 50% growth inhibitory concentration): 490 nM
- GI50 (LOX-IMVI melanoma cells; LOX-IMVI melanoma cells, read-out: antitumor activity GI50 value: 50% growth inhibitory concentration): 61 nM
- GI50 ([8]; BSY-1 breast cancer cells, read-out: antitumor activity GI50 value: 50% growth inhibitory concentration): 34 nM
- GI50 ([9]; NCI-H23, NCl-H23 lung cancer cells, read-out: antitumor activity GI50 value: 50% growth inhibitory concentration): 290 nM
- GI50 ([10]; MKN1 gastric cancer cells, read-out: antitumor activity GI50 value: 50% growth inhibitory concentration): 52 nM
- GI50 (SK-OV-3 cancer cells; SK-OV-3 cervical cancer cells, read-out: antitumor activity GI50 value: 50% growth inhibitory concentration): 540 nM
- GI50 (OVCAR-8 cancer cells; OVCAR-8 cervical cancer cells, read-out: antitumor activity GI50 value: 50% growth inhibitory concentration): 290 nM
- GI50 (OVCAR-3 cancer cells; OVCAR-3 cervical cancer cells, read-out: antitumor activity GI50 value: 50% growth inhibitory concentration): 130 nM
- GI50 ([11]; NCI-H460, NCl--H460 lung cancer cells, read-out: antitumor activity GI50 value: 50% growth inhibitory concentration): 400 nM
- GI50 ([12]; U251 central nervous system cancer cells, read-out: antitumor activity GI50 value: 50% growth inhibitory concentration): 370 nM
- GI50 ([13]; HCC2998 colorectal cancer cells, read-out: antitumor activity GI50 value: 50% growth inhibitory concentration): 350 nM
- GI50 ([14]; SF-539 central nervous system cancer cells, read-out: antitumor activity GI50 value: 50% growth inhibitory concentration): 180 nM
- GI50 ([15]; PC-3 prostate cancer cells, read-out: antitumor activity GI50 value: 50% growth inhibitory concentration): 290 nM

Structure (SMILES): C#CCN1C/C=C/C(=C)COc2c(C)c3c(c4c2C[C@H]2[C@H]5c6c(cc(C)c(OC)c6O)C[C@@H]([C@H](C#N)N2C4CNC(=O)[C@@H]1C)N5C)OCO3 [Compound 35]
- GI50 ([1]; KM-12, drug exposure 48 hours, read-out: GI50 value: 50% growth inhibitory concentration): 3.8 nM
- GI50 ([2]; SNB-75, drug exposure 48 hours, read-out: GI50 value: 50% growth inhibitory concentration): 1.7 nM
- GI50 (A549 lung cancer cells; A549, drug exposure 48 hours, read-out: GI50 value: 50% growth inhibitory concentration): 7.2 nM
- GI50 ([3]; SF-268, drug exposure 48 hours, read-out: GI50 value: 50% growth inhibitory concentration): 3.3 nM
- GI50 (DMS273 lung cancer cells; DMS273, drug exposure 48 hours, read-out: GI50 value: 50% growth inhibitory concentration): 2.5 nM
- GI50 ([4]; MKN74, drug exposure 48 hours, read-out: GI50 value: 50% growth inhibitory concentration): 4.5 nM
- GI50 ([5]; HBC-5, drug exposure 48 hours, read-out: GI50 value: 50% growth inhibitory concentration): 2.7 nM
- GI50 ([6]; MCF-7, drug exposure 48 hours, read-out: GI50 value: 50% growth inhibitory concentration): 0.87 nM
- GI50 ([7]; DU-145, drug exposure 48 hours, read-out: GI50 value: 50% growth inhibitory concentration): 3.8 nM
- GI50 (LOX-IMVI melanoma cells; LOX-IMVI, drug exposure 48 hours, read-out: GI50 value: 50% growth inhibitory concentration): 1.7 nM
- GI50 ([8]; BSY-1, drug exposure 48 hours, read-out: GI50 value: 50% growth inhibitory concentration): 1.3 nM
- GI50 ([9]; NCI-H23, drug exposure 48 hours, read-out: GI50 value: 50% growth inhibitory concentration): 3.5 nM
- GI50 ([10]; MKN1, drug exposure 48 hours, read-out: GI50 value: 50% growth inhibitory concentration): 2.7 nM
- GI50 (SK-OV-3 cancer cells; SK-OV-3, drug exposure 48 hours, read-out: GI50 value: 50% growth inhibitory concentration): 6.5 nM
- GI50 (OVCAR-8 cancer cells; OVCAR-8, drug exposure 48 hours, read-out: GI50 value: 50% growth inhibitory concentration): 3.1 nM
- GI50 (OVCAR-3 cancer cells; OVCAR-3, drug exposure 48 hours, read-out: GI50 value: 50% growth inhibitory concentration): 3.2 nM
- GI50 ([11]; NCI-H460, drug exposure 48 hours, read-out: GI50 value: 50% growth inhibitory concentration): 3.4 nM
- GI50 ([12]; U251, drug exposure 48 hours, read-out: GI50 value: 50% growth inhibitory concentration): 2.5 nM
- GI50 ([13]; HCC2998, drug exposure 48 hours, read-out: GI50 value: 50% growth inhibitory concentration): 3.6 nM
- GI50 ([14]; SF-539, drug exposure 48 hours, read-out: GI50 value: 50% growth inhibitory concentration): 2.2 nM
- GI50 ([15]; PC-3, drug exposure 48 hours, read-out: GI50 value: 50% growth inhibitory concentration): 3.3 nM
